Results on 22 compounds are retold here after PubChem BioAssay AID256 (DTP/NCI, 2004).

For the test, the system named is CD2F1 mice, L1210 leukemia ip, survival T/C. Description: NCI In Vivo Anticancer Drug Screen. Data for tumor model L1210 Leukemia (intraperitoneal) in CD2F1 (CDF1) mice. Particulars: higher = longer survival. In outline:
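In this screen, transplantable tumors were grown in mice given either the compound or its vehicle. Results were expressed as the treated measurement relative to the control measurement.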

The mark [1] stands for this setting: endpoint: mean survival time, dose: 50.0 mg/kg/injection, schedule: Q04DX002 (ip), vehicle: saline with Tween-80.
Setting [2] is: endpoint: mean survival time, dose: 100.0 mg/kg/injection, schedule: Q01DX001 (ip), vehicle: saline with Tween-80.
Where [3] appears, read: endpoint: mean survival time, dose: 100.0 mg/kg/injection, schedule: Q04DX002 (ip), vehicle: saline with Tween-80.
The mark [4] stands for this setting: endpoint: mean survival time, dose: 200.0 mg/kg/injection, schedule: Q01DX001 (ip), vehicle: saline with Tween-80.
Where [5] appears, read: endpoint: mean survival time, dose: 200.0 mg/kg/injection, schedule: Q04DX002 (ip), vehicle: saline with Tween-80.
Setting [6] is: endpoint: mean survival time, dose: 400.0 mg/kg/injection, schedule: Q01DX001 (ip), vehicle: saline with Tween-80.
[7] abbreviates: endpoint: mean survival time, dose: 400.0 mg/kg/injection, schedule: Q04DX002 (ip), vehicle: saline with Tween-80.
Where [8] appears, read: endpoint: mean survival time, dose: 25.0 mg/kg/injection, schedule: Q04DX003 (ip), vehicle: saline with Tween-80.
[9] abbreviates: endpoint: mean survival time, dose: 100.0 mg/kg/injection, schedule: Q01DX001 (ip), vehicle: saline.
[10] abbreviates: endpoint: mean survival time, dose: 200.0 mg/kg/injection, schedule: Q01DX001 (ip), vehicle: saline.
Setting [11] is: endpoint: mean survival time, dose: 50.0 mg/kg/injection, schedule: Q04DX003 (ip), vehicle: Klucel (hydroxypropylcellulose) (HPC).
Setting [12] is: endpoint: mean survival time, dose: 100.0 mg/kg/injection, schedule: Q04DX003 (ip), vehicle: Klucel (hydroxypropylcellulose) (HPC).

Toxic doses and inconclusive results are not listed.

For the compound `CCSC(CC(OC(C)=O)C(OC(C)=O)C(COC(C)=O)OC(C)=O)n1cnc2c(Cl)ncnc21` (stereo not given), the T/C was 98 % of control (endpoint: mean survival time, dose: 12.5 mg/kg/injection, schedule: Q01DX005 (ip), vehicle: other); 96 % of control (endpoint: mean survival time, dose: 25.0 mg/kg/injection, schedule: Q01DX005 (ip), vehicle: other); 95 % of control (endpoint: mean survival time, dose: 50.0 mg/kg/injection, schedule: Q01DX005 (ip), vehicle: other); 104 % of control (endpoint: mean survival time, dose: 100.0 mg/kg/injection, schedule: Q01DX005 (ip), vehicle: other); 105 % of control (endpoint: mean survival time, dose: 200.0 mg/kg/injection, schedule: Q01DX005 (ip), vehicle: other).
As for `NC1CCCCC1N.NC1CCCCC1N.[Cl-].[Ni]` (stereo not given), under setting [1], the T/C was 110 % of control.
In the case of `O/N=C1\CN2CCC1CC2`, the T/C under setting [2] is 91 % of control.
For `CCCCCCC(O)C/C=C\CCCCCCCC(=O)O` (stereo not given), the T/C runs as follows: (endpoint: mean survival time, dose: 50.0 mg/kg/injection, schedule: Q04DX002 (ip), vehicle: saline) 86 % of control; (endpoint: mean survival time, dose: 100.0 mg/kg/injection, schedule: Q04DX002 (ip), vehicle: saline) 90 % of control.
Consider `COC(=O)CC1(C(=O)OC)NC(=O)c2cc(OC)c(Cl)cc2N1` (stereo not given), for which the T/C under setting [2] is 88 % of control; the T/C under setting [3] was 96 % of control; the T/C under setting [4] was 94 % of control; the T/C under setting [5] is 96 % of control; the T/C under setting [6] is 95 % of control; the T/C under setting [7] was 86 % of control.
On to `C=CCNC(=S)NCC`, for which the T/C (endpoint: mean survival time, dose: 100.0 mg/kg/injection, schedule: Q01DX009 (ip), vehicle: saline with Tween-80) is 98 % of control; the T/C (endpoint: mean survival time, dose: 100.0 mg/kg/injection, schedule: Q04DX003 (ip), vehicle: saline sonified) was 101 % of control; the T/C (endpoint: mean survival time, dose: 200.0 mg/kg/injection, schedule: Q01DX009 (ip), vehicle: saline with Tween-80) is 101 % of control; the T/C (endpoint: mean survival time, dose: 200.0 mg/kg/injection, schedule: Q04DX003 (ip), vehicle: saline sonified) is 97 % of control; the T/C (endpoint: mean survival time, dose: 400.0 mg/kg/injection, schedule: Q01DX009 (ip), vehicle: saline with Tween-80) was 102 % of control; the T/C (endpoint: mean survival time, dose: 400.0 mg/kg/injection, schedule: Q04DX003 (ip), vehicle: saline sonified) was 101 % of control.
Regarding `CCOC(=O)C(Br)C(Br)c1cccc([N+](=O)[O-])c1` (stereo not given), the T/C was 98 % of control (endpoint: mean survival time, dose: 25.0 mg/kg/injection, schedule: Q01DX009 (ip), vehicle: other); 98 % of control (endpoint: mean survival time, dose: 50.0 mg/kg/injection, schedule: Q01DX009 (ip), vehicle: other); 101 % of control (endpoint: mean survival time, dose: 100.0 mg/kg/injection, schedule: Q01DX009 (ip), vehicle: other).
For `c1ccc(CN2CCC(Nc3ccccc3)(c3nnnn3C3CCCCC3)CC2)cc1`, the T/C is, setting by setting: under setting [2], 95 % of control; under setting [4], 96 % of control; under setting [6], 90 % of control.
On to `CN(C)C(=O)Nc1cc(Cl)ccc1Cl`, for which the T/C under setting [3] was 97 % of control, the T/C under setting [5] was 108 % of control and the T/C under setting [7] was 120 % of control.
`O=[As](O)(CC(O)COc1ccccc1)c1cccc(Cl)c1` (stereo not given): the T/C reads like this: (endpoint: mean survival time, dose: 6.25 mg/kg/injection, schedule: Q04DX003 (ip), vehicle: saline with Tween-80) 103 % of control; (endpoint: mean survival time, dose: 12.5 mg/kg/injection, schedule: Q04DX003 (ip), vehicle: saline with Tween-80) 107 % of control; under setting [8], 100 % of control.
With `CCOC(=O)/C=C/SCCCC(=O)O`, the T/C is 100 % of control under setting [2], 105 % of control under setting [4] and 95 % of control under setting [6].
For the compound `O=C1CC2CCN(C(=O)c3ccccc3)C(Cc3c[nH]c4ccccc34)C2O1` (stereo not given), the T/C under setting [9] is 105 % of control; the T/C under setting [10] is 94 % of control; the T/C (endpoint: mean survival time, dose: 400.0 mg/kg/injection, schedule: Q01DX001 (ip), vehicle: saline) is 93 % of control.
For `C=CC(=O)N1CCN(C(=O)C=C)c2cc(C)c(C)cc21`, the T/C reads like this: (endpoint: mean survival time, dose: 25.0 mg/kg/injection, schedule: Q01DX009 (ip), vehicle: saline) 101 % of control; (endpoint: mean survival time, dose: 50.0 mg/kg/injection, schedule: Q01DX009 (ip), vehicle: saline) 101 % of control; (endpoint: mean survival time, dose: 100.0 mg/kg/injection, schedule: Q01DX009 (ip), vehicle: saline) 100 % of control.
On to `C=C1C(C)C2C(Cc3ccccc3)NC(=O)C23C(OC(C)=O)/C=C/C(C)(O)CC(C)C/C=C/C3C1O` (stereo not given), for which the T/C was 95 % of control (endpoint: mean survival time, dose: 0.37 mg/kg/injection, schedule: Q01DX009 (ip), vehicle: Klucel (hydroxypropylcellulose) (HPC)); 100 % of control (endpoint: mean survival time, dose: 0.75 mg/kg/injection, schedule: Q01DX009 (ip), vehicle: Klucel (hydroxypropylcellulose) (HPC)); 96 % of control (endpoint: mean survival time, dose: 1.5 mg/kg/injection, schedule: Q01DX009 (ip), vehicle: Klucel (hydroxypropylcellulose) (HPC)); 96 % of control (endpoint: mean survival time, dose: 3.0 mg/kg/injection, schedule: Q01DX009 (ip), vehicle: Klucel (hydroxypropylcellulose) (HPC)); 105 % of control (endpoint: mean survival time, dose: 6.0 mg/kg/injection, schedule: Q01DX009 (ip), vehicle: Klucel (hydroxypropylcellulose) (HPC)); 105 % of control (endpoint: mean survival time, dose: 12.0 mg/kg/injection, schedule: Q01DX009 (ip), vehicle: Klucel (hydroxypropylcellulose) (HPC)). The T/C reads like this: (endpoint: mean survival time, dose: 375.0 micrograms/kg/injection, schedule: Q01DX009 (ip), vehicle: Klucel (hydroxypropylcellulose) (HPC)) 106 % of control; (endpoint: mean survival time, dose: 750.0 micrograms/kg/injection, schedule: Q01DX009 (ip), vehicle: Klucel (hydroxypropylcellulose) (HPC)) 96 % of control; (endpoint: mean survival time, dose: 1500.0 micrograms/kg/injection, schedule: Q01DX009 (ip), vehicle: Klucel (hydroxypropylcellulose) (HPC)) 104 % of control; (endpoint: mean survival time, dose: 3000.0 micrograms/kg/injection, schedule: Q01DX009 (ip), vehicle: Klucel (hydroxypropylcellulose) (HPC)) 101 % of control; (endpoint: mean survival time, dose: 6000.0 micrograms/kg/injection, schedule: Q01DX009 (ip), vehicle: Klucel (hydroxypropylcellulose) (HPC)) 96 % of control.
Turning to `C=C(C)CSC(=S)NNc1ccccc1`, the T/C is, setting by setting: (endpoint: mean survival time, dose: 25.0 mg/kg/injection, schedule: Q01DX009 (ip), vehicle: acetone) 93 % of control; (endpoint: mean survival time, dose: 50.0 mg/kg/injection, schedule: Q01DX009 (ip), vehicle: acetone) 96 % of control; (endpoint: mean survival time, dose: 100.0 mg/kg/injection, schedule: Q01DX009 (ip), vehicle: acetone) 102 % of control.
As to `CCOC(=O)CCC(NC(=O)c1ccc(NCC2CCc3nc(N)[nH]c(=O)c3N2)cc1)C(=O)OCC` (stereo not given), the T/C was 97 % of control (endpoint: median survival time, dose: 10.0 mg/kg/injection, schedule: Q01DX005 (ip), vehicle: distilled water + Tween-80); 102 % of control (endpoint: median survival time, dose: 20.0 mg/kg/injection, schedule: Q01DX005 (ip), vehicle: distilled water + Tween-80); 100 % of control (endpoint: median survival time, dose: 40.0 mg/kg/injection, schedule: Q01DX005 (ip), vehicle: distilled water + Tween-80); 96 % of control (endpoint: median survival time, dose: 80.0 mg/kg/injection, schedule: Q01DX005 (ip), vehicle: distilled water + Tween-80); 100 % of control (endpoint: median survival time, dose: 160.0 mg/kg/injection, schedule: Q01DX005 (ip), vehicle: distilled water + Tween-80).
`O=c1[nH]cc(NCCCCc2ccccc2)c(=O)[nH]1`: the T/C runs as follows: under setting [2], 94 % of control; under setting [4], 95 % of control; under setting [6], 92 % of control.
On to `O=C1NC(=O)C(c2ccccc2)(C2CCCC2)N1` (stereo not given), for which the T/C runs as follows: under setting [11], 104 % of control; under setting [12], 98 % of control; (endpoint: mean survival time, dose: 200.0 mg/kg/injection, schedule: Q04DX003 (ip), vehicle: Klucel (hydroxypropylcellulose) (HPC)) 95 % of control.
In the case of `CCn1c(=O)c2[nH]c(Cl)nc2n(CC)c1=O`, the T/C runs as follows: (endpoint: mean survival time, dose: 25.0 mg/kg/injection, schedule: Q04DX003 (ip), vehicle: Klucel (hydroxypropylcellulose) (HPC)) 102 % of control; under setting [11], 105 % of control; under setting [12], 107 % of control.
Turning to `S=C(N/N=C/c1ccccn1)Nc1ccccn1`, the T/C is 103 % of control under setting [3], 114 % of control under setting [5] and 91 % of control under setting [7].
Turning to `O=C(NCCN1CC1)c1ccccc1C(=O)NCCN1CC1`, the T/C is 105 % of control under setting [8]; 100 % of control (endpoint: mean survival time, dose: 50.0 mg/kg/injection, schedule: Q04DX003 (ip), vehicle: saline with Tween-80); 110 % of control under setting [9]; 117 % of control (endpoint: mean survival time, dose: 100.0 mg/kg/injection, schedule: Q04DX003 (ip), vehicle: saline with Tween-80); 164 % of control under setting [10].
With `C(#CCNC1CCCCC1)CNC1CCCCC1`, the T/C was 94 % of control (endpoint: mean survival time, dose: 25.0 mg/kg/injection, schedule: Q04DX002 (ip), vehicle: saline with Tween-80) and 98 % of control under setting [1].
